Literature values, collected in patent US20050096369A1, “Compositions and methods for treating cellular proliferation disorders” (priority 2003, published 2005).
Values belong to the molecule of their own block, whether it stands above or below them.

Experiments:
[1] = test system: voltage gated calcium channels; settings: cultured rat hippocampal neurons; concentration and voltage dependant (Weng et al., 2003)
[2] = test system: cell lines derived from human malignancies; settings: Pizer et al.
leukemia cells = settings: Zhu Ningxi, et al.
[3] = Merck Index
[4] = test system: voltage-gated sodium channel; settings: PDR and Zhou, 2003
calcium-channel = settings: PDR and Zhou, 2003
[5] = not given; remark: listed apart in the source

Compound: N=C(N)NCCCCN [Agmatine, agmatine]
effect on voltage gated calcium channels [1]: block voltage gated calcium channels

Compound: C/C=C/C/C=C/CCC(=O)[C@H]1O[C@H]1C(N)=O [cerulenin]
cytotoxicity [2]: selectively cytotoxic to cell lines derived from human malignancies

Compound: O=C1CCC[C@@H]2[C@H]3CCCN4CCC[C@@H](CN12)[C@@H]34 [matrine]
time to excretion by the kidneys (in vivo): ≤ 24 h
stability in the blood (not converted by the liver): stable in the blood
effect on leukemia cell differentiation (leukemia cells): could help leukemia cells differentiate into mature and normal white blood cells
water solubility [3]: water soluble

fate when administered by injection (injection): stable and is excreted as oxymatrine
fate when taken orally (oral): converted to matrine
Compound: O=C1CCC[C@@H]2[C@H]3CCC[N+]4([O-])CCC[C@@H](CN12)[C@@H]34 (stereo partly drawn) [oxymatrine]

time to peak plasma levels ([5]; after ingestion): one to one and a half
time in which most of a dose is excreted ([5]; excreted in urine as apovincaminic acid): ≤ 24 h
elimination half-life ([5]; following ingestion): one to two
absorption ([5]; given with food): up to 60 % of an ingested dose
absorption of an ingested dose ([5]; on an empty stomach): ≥ 7%
Compound: CCOC(=O)C1=C[C@]2(CC)CCCN3CCc4c(n1c1ccccc41)[C@@H]32 [vinpocetine, eburnamenine-14-carboxylic acid ethyl ester]
voltage-gated sodium channel blocking [4]: voltage-gated sodium channel blocking activity
calcium-channel blocking (calcium-channel): calcium-channel blocking activity
